# Assay results published in PubChem BioAssay AID180 (DTP/NCI, 2004).
# Several values for one entry are separate records, joined by “and”; a condition that tells them apart may be missing. Equal entries are not always repeated. Non-standard residues stand in square brackets, D forms with d. Residues, ends and D or L forms follow the SMILES beside them. ξ: configuration not given here. Ac5c = NC1(C(=O)O)CCCC1; ξS = NC(CO)C(=O)O
# System: BDF1 mice, Adenocarcinoma 755 s.c., tumor weight T/C
# Assay: NCI In Vivo Anticancer Drug Screen. Data for tumor model Adenocarcinoma 755 (subcutaneous) in B6D2F1 (BDF1) mice
# Conditions: endpoint: mean tumor weight, higher = larger tumour
# Procedure, shortened: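 In vivo antitumor screen on a transplantable tumor line. Result equals the measure in compound-treated animals divided by the same measure in vehicle controls.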
# [1] = dose: 30.0 mg/kg/injection, schedule: Q01DX011 (ip), vehicle: carboxymethylcellulose (CMC)
# [2] = dose: 60.0 mg/kg/injection, schedule: Q01DX011 (ip), vehicle: carboxymethylcellulose (CMC)
# [3] = dose: 120.0 mg/kg/injection, schedule: Q01DX011 (ip), vehicle: carboxymethylcellulose (CMC)
# [4] = dose: 240.0 mg/kg/injection, schedule: Q01DX011 (ip), vehicle: carboxymethylcellulose (CMC)
# [5] = dose: 15.0 mg/kg/injection, schedule: Q01DX011 (ip), vehicle: methylcellulose (MC)
# [6] = dose: 31.0 mg/kg/injection, schedule: Q01DX011 (ip), vehicle: methylcellulose (MC)
# [7] = dose: 62.0 mg/kg/injection, schedule: Q01DX011 (ip), vehicle: methylcellulose (MC)
# [8] = dose: 125.0 mg/kg/injection, schedule: Q01DX011 (ip), vehicle: methylcellulose (MC)
# [9] = dose: 250.0 mg/kg/injection, schedule: Q01DX011 (ip), vehicle: methylcellulose (MC)
# [10] = dose: 2.0 mg/kg/injection, schedule: Q01DX011 (ip), vehicle: saline
# [11] = dose: 12.5 mg/kg/injection, schedule: Q01DX011 (ip), vehicle: methylcellulose (MC)
# [12] = dose: 25.0 mg/kg/injection, schedule: Q01DX011 (ip), vehicle: methylcellulose (MC)
# [13] = dose: 50.0 mg/kg/injection, schedule: Q01DX011 (ip), vehicle: methylcellulose (MC)
# [14] = dose: 50.0 mg/kg/injection, schedule: Q01DX011 (ip), vehicle: other
# [15] = dose: 50.0 mg/kg/injection, schedule: Q01DX011 (ip), vehicle: saline
# [16] = dose: 100.0 mg/kg/injection, schedule: Q01DX011 (ip), vehicle: saline
# [17] = dose: 12.5 mg/kg/injection, schedule: Q01DX011 (ip), vehicle: saline
# [18] = dose: 25.0 mg/kg/injection, schedule: Q01DX011 (ip), vehicle: saline
structure (smiles),measurement,setting,value
Nc1ncc(N)c(N)n1,T/C,[1],89 % of control
same,T/C,[2],116 % of control
same,T/C,[3],111 % of control
same,T/C,[4],96 % of control
Cc1ccc(Nc2nc(N)nc(C)c2Br)cc1,T/C,[5],98 % of control
same,T/C,[6],95 % of control
same,T/C,[7],82 % of control
same,T/C,[8],70 % of control
same,T/C,[9],83 % of control
C[C@]12C=CC(=O)C=C1[C@@H](F)C[C@@H]1[C@@H]2[C@@H](O)C[C@@]2(C)[C@H]1CC[C@]2(O)C(=O)CO,T/C,"dose: 3.0 mg/kg/injection, schedule: Q01DX011 (ip), vehicle: methylcellulose (MC)",63 % of control and 64 % of control
same,T/C,"dose: 3.0 mg/kg/injection, schedule: Q01DX011 (sc), vehicle: steriod suspending solution",51 % of control
same,T/C,"dose: 6.0 mg/kg/injection, schedule: Q01DX011 (ip), vehicle: methylcellulose (MC)",41 % of control and 43 % of control
same,T/C,"dose: 6.0 mg/kg/injection, schedule: Q01DX011 (sc), vehicle: steriod suspending solution",53 % of control
same,T/C,"dose: 12.0 mg/kg/injection, schedule: Q01DX011 (ip), vehicle: methylcellulose (MC)",37 % of control and 41 % of control
same,T/C,"dose: 12.0 mg/kg/injection, schedule: Q01DX011 (sc), vehicle: steriod suspending solution",46 % of control
same,T/C,"dose: 24.0 mg/kg/injection, schedule: Q01DX011 (ip), vehicle: methylcellulose (MC)",30 % of control and 40 % of control
same,T/C,"dose: 24.0 mg/kg/injection, schedule: Q01DX011 (sc), vehicle: steriod suspending solution",30 % of control
same,T/C,"dose: 48.0 mg/kg/injection, schedule: Q01DX011 (sc), vehicle: steriod suspending solution",23 % of control
CCC1/C=C/C=C/CC(C)C(O)C(C)(O)C(=O)C(C)C(O)C(C)C(=O)C(C)C(O)C(C)/C=C/C(=O)OC2C(C)C(CC1)OC1(OC(CC(C)O)C(C)CC1=O)C2C (stereo unspecified) (tested in a mixture with another compound),T/C,"dose: 1.0 mg/kg/injection, schedule: Q01DX011 (ip), vehicle: saline",68 % of control
same,T/C,[10],87 % of control
same,T/C,"dose: 4.0 mg/kg/injection, schedule: Q01DX011 (ip), vehicle: saline",61 % of control
Nc1nc(=S)c2ncn(C3OC(COC(=O)c4ccccc4)C(OC(=O)c4ccccc4)C3OC(=O)c3ccccc3)c2[nH]1 (stereo unspecified),T/C,[11],52 % of control
same,T/C,[12],49 % of control
same,T/C,[13],7 % of control
same,T/C,"dose: 100.0 mg/kg/injection, schedule: Q01DX011 (ip), vehicle: methylcellulose (MC)",3 % of control
Nc1[nH]c(=S)ncc1NC=O,T/C,[1],90 % of control
same,T/C,[3],91 % of control
same,T/C,[4],79 % of control
NC(CO)C(=O)NC1(C(=O)O)CCCC1 (stereo unspecified) (H-[ξS]-[Ac5c]-OH),T/C,"dose: 45.0 mg/kg/injection, schedule: Q01DX011 (ip), vehicle: carboxymethylcellulose (CMC)",62 % of control
same,T/C,"dose: 90.0 mg/kg/injection, schedule: Q01DX011 (ip), vehicle: carboxymethylcellulose (CMC)",12 % of control
same,T/C,"dose: 180.0 mg/kg/injection, schedule: Q01DX011 (ip), vehicle: carboxymethylcellulose (CMC)",5 % of control
NC(=O)NOC(=O)c1ccccc1,T/C,[14],57 % of control
same,T/C,[15],86 % of control
same,T/C,"dose: 100.0 mg/kg/injection, schedule: Q01DX011 (ip), vehicle: other",28 % of control
same,T/C,[16],75 % of control
same,T/C,"dose: 200.0 mg/kg/injection, schedule: Q01DX011 (ip), vehicle: other",21 % of control
same,T/C,"dose: 200.0 mg/kg/injection, schedule: Q01DX011 (ip), vehicle: saline",94 % of control
same,T/C,"dose: 400.0 mg/kg/injection, schedule: Q01DX011 (ip), vehicle: saline",92 % of control
CCCC(=O)OCC1OC(n2cnc3c(=S)nc(N)[nH]c32)C(OC(=O)CCC)C1OC(=O)CCC (stereo unspecified),T/C,"dose: 0.16 mg/kg/injection, schedule: Q01DX011 (ip), vehicle: saline",57 % of control
same,T/C,"dose: 0.38 mg/kg/injection, schedule: Q01DX011 (ip), vehicle: saline",88 % of control
same,T/C,"dose: 0.58 mg/kg/injection, schedule: Q01DX011 (ip), vehicle: saline",82 % of control
same,T/C,"dose: 1.3 mg/kg/injection, schedule: Q01DX011 (ip), vehicle: saline",31 % of control
same,T/C,[10],18 % of control
same,T/C,"dose: 3.0 mg/kg/injection, schedule: Q01DX011 (ip), vehicle: saline",4 % of control
same,T/C,"dose: 6.0 mg/kg/injection, schedule: Q01DX011 (ip), vehicle: carboxymethylcellulose (CMC)",2 % of control and 11 % of control
same,T/C,"dose: 12.0 mg/kg/injection, schedule: Q01DX011 (ip), vehicle: carboxymethylcellulose (CMC)",2 % of control and 3 % of control
same,T/C,"dose: 24.0 mg/kg/injection, schedule: Q01DX011 (ip), vehicle: carboxymethylcellulose (CMC)",1 % of control
CC1CN1P(=O)(N1CCc2ccccc21)N1CC1C (stereo unspecified),T/C,"dose: 28.0 mg/kg/injection, schedule: Q01DX011 (ip), vehicle: carboxymethylcellulose (CMC)",97 % of control
same,T/C,"dose: 56.0 mg/kg/injection, schedule: Q01DX011 (ip), vehicle: carboxymethylcellulose (CMC)",67 % of control
same,T/C,"dose: 113.0 mg/kg/injection, schedule: Q01DX011 (ip), vehicle: carboxymethylcellulose (CMC)",41 % of control
same,T/C,"dose: 226.0 mg/kg/injection, schedule: Q01DX011 (ip), vehicle: carboxymethylcellulose (CMC)",2 % of control
CSc1ncn(C)c2ncnc1-2,T/C,[1],58 % of control
same,T/C,[2],71 % of control
CC1([CH2][Hg][I])OCCOC1[CH2][Hg][I] (stereo unspecified),T/C,"dose: 2.5 mg/kg/injection, schedule: Q01DX011 (ip), vehicle: saline",57 % of control
same,T/C,"dose: 5.0 mg/kg/injection, schedule: Q01DX011 (ip), vehicle: saline",71 % of control
same,T/C,"dose: 10.0 mg/kg/injection, schedule: Q01DX011 (ip), vehicle: saline",57 % of control
same,T/C,"dose: 10.9 mg/kg/injection, schedule: Q01DX011 (ip), vehicle: saline",36 % of control
same,T/C,"dose: 11.0 mg/kg/injection, schedule: Q01DX011 (ip), vehicle: carboxymethylcellulose (CMC)",87 % of control
same,T/C,"dose: 20.0 mg/kg/injection, schedule: Q01DX011 (ip), vehicle: saline",7 % of control
O=S=Nc1ccccc1,T/C,"dose: 351.0 mg/kg/injection, schedule: Q01DX011 (ip), vehicle: carboxymethylcellulose (CMC)",64 % of control
O=C(O)C(=O)O.[U],T/C,"dose: 12.5 mg/kg/injection, schedule: Q01DX011 (ip), vehicle: other",73 % of control
same,T/C,[17],68 % of control
same,T/C,"dose: 25.0 mg/kg/injection, schedule: Q01DX011 (ip), vehicle: other",50 % of control
same,T/C,[18],39 % of control
same,T/C,[14],49 % of control
same,T/C,[15],36 % of control
same,T/C,[16],25 % of control
Cc1cc(Nc2ccc(CCO)cc2)nc(N)n1,T/C,[5],64 % of control
same,T/C,[6],75 % of control
same,T/C,[7],77 % of control
same,T/C,[8],85 % of control
same,T/C,[9],73 % of control
C[C@H]1C[C@@H]2[C@H]([C@@H](O)C[C@@]3(C)[C@H]2CC[C@]3(O)C(=O)CO)[C@@]2(C)C=CC(=O)C=C12,T/C,"dose: 14.3 mg/kg/injection, schedule: Q01DX011 (sc), vehicle: steriod suspending solution",21 % of control
same,T/C,"dose: 14.3 mg/kg/injection, schedule: Q01DX011 (sc), vehicle: water",48 % of control and 56 % of control
same,T/C,"dose: 28.5 mg/kg/injection, schedule: Q01DX011 (sc), vehicle: steriod suspending solution",8 % of control
same,T/C,"dose: 28.5 mg/kg/injection, schedule: Q01DX011 (sc), vehicle: water",25 % of control and 47 % of control
same,T/C,"dose: 57.0 mg/kg/injection, schedule: Q01DX011 (sc), vehicle: steriod suspending solution",1 % of control
same,T/C,"dose: 57.0 mg/kg/injection, schedule: Q01DX011 (sc), vehicle: water",5 % of control and 29 % of control
same,T/C,"dose: 114.0 mg/kg/injection, schedule: Q01DX011 (sc), vehicle: steriod suspending solution",1 % of control
same,T/C,"dose: 114.0 mg/kg/injection, schedule: Q01DX011 (sc), vehicle: water",3 % of control
NS(=O)(=O)c1ncnc2nc[nH]c12,T/C,"dose: 3.1 mg/kg/injection, schedule: Q01DX011 (ip), vehicle: methylcellulose (MC)",105 % of control
same,T/C,"dose: 6.2 mg/kg/injection, schedule: Q01DX011 (ip), vehicle: methylcellulose (MC)",78 % of control
same,T/C,[11],15 % of control
same,T/C,[12],3 % of control and 9 % of control
CCSc1ncnc2c1ncn2C1OC(CO)C(O)C1O (stereo unspecified),T/C,"dose: 6.25 mg/kg/injection, schedule: Q01DX011 (ip), vehicle: saline",96 % of control
same,T/C,[11],53 % of control
same,T/C,[17],49 % of control
same,T/C,[12],27 % of control
same,T/C,[18],14 % of control
same,T/C,[13],10 % of control
same,T/C,[15],4 % of control
